Experimental findings from patent US12485191B2, “Radiopharmaceuticals and methods of use thereof” (BOARD OF REGENTS OF THE UNIVERSITY OF NEBRASKA, priority 2017, dated 2025) are described below.

One data set concerns HT-29 xenograft tumors. As to the kind of experiment: Biodistribution study in HT-29 xenograft mouse model. Format: in vivo, mice. Here is the method: Female SCID mice (5 weeks of age) received subcutaneous injections of HT-29 cells (5×10^6) suspended in Matrigel® into the flanks. When the tumor size reached 80 mm^3 (two weeks after injection), the mice were randomized into three groups and intravenously injected with 10 μCi (0.37 MBq) of the purified ^177Lu labeled conjugates via tail vein. The mice were sacrificed and the tissues were excised at 4, 24, and 72 hours post-injection time points. The blood, tumor, and excised tissues were weighed. The radioactivity for each sample was measured using a gamma counter. The percentage injected dose per gram (% ID/g) and the radioactivity ratios between tumor and non-targeted tissues were calculated.

For data set [1], the target named is T1, cathepsin B (human Liver) (Homo sapiens, UniProt P07858).
T1 construct: from tissue; host or cells: human liver
The data set can be described thus: Inhibition constant (Ki) of the compounds to cathepsin B. In kind it is biochemical. The following applies: read-out: CatB K1. The protocol: Determination of the Km and Vmax of Cathepsin B for Z-Arg-Arg-AMC
The solution of cathepsin B (human Liver) (50 μL, 2 nM) in assay buffer used above was mixed with 50 μL of solution of substrate Z-Arg-Arg-AMC in the assay buffer at different concentrations ([S]) (25 μM, 50 μM, 100 μM, 500 μM and 1 mM). The mixture was incubated at 37° C. and the fluorescence of the liberated aminomethylcoumarin at 460 nM using 355 nm excitation was measured at predetermined time points (0, 2, 4, 6, 8, and 10 minutes). The fluorescence intensity was plotted versus time and the reaction rates (v0) were calculated as the slope of the trend lines obtained by liner regression. Km and maximum reaction rate (Vmax-obs) was determined from the equation v0=Vmax[S]/(Km+[S]) and solved by nonlinear regression using GraphPad Prism 5. All measurements were in biological triplicate.
Determination of the Inhibition Constant (Ki) of the Compounds to Cathepsin B
The cathepsin B (human Liver) in assay buffer (25 μL) was mixed with the conjugate (25 μL) in 96-well plate. After the solution was mixed, the Z-Arg-Arg-AMC in assay buffer (50 μL) was added to the well, yielding a final cathepsin B concentration of 1 nM, conjugate concentration ([C]) of 15 nM or 5 μM, and substrate concentration ([S]) of 25 μM, 50 μM, 100 μM, 500 μM and 1 mM. The mixture was incubated at 37° C. and the fluorescence of the liberated aminomethylcoumarin at 460 nM using 355 nm excitation was measured at predetermined time points (0, 2, 4, 6, 8, and 10 minutes). The fluorescence intensity was plotted versus time with observed reaction rates (v0-obs) calculated as the slope of the trend lines obtained by liner regression. The observed rate constant (Kobs) and observed maximum reaction rate (Vmax-obs) was determined from the equation v0-obs=Vmax-obs [S]/(Kobs+[S]) and solved by nonlinear regression using GraphPad Prism 5. The Ki was calculated from the equation Kobs=Km (1+[C]/Ki). All measurements were in biological triplicate.

A further data set addresses T2, NTSR1 (Homo sapiens, UniProt P30989).
T2 construct: endogenous in cells; host or cells: HT-29 human colon cancer cells (ATCC)
As to the kind of experiment: In vitro competitive neurotensin receptor binding in HT-29 cells vs 177Lu-N1. To be noted: unlabeled conjugates. The protocol:
In Vitro Competitive Neurotensin Receptor Binding Studies
The IC50 for the unlabeled conjugates binding to the neurotensin receptors was determined using the HT-29 human colon cancer cell line. […]. Med. Biol., 42:816), served as the competitive radioligand for comparing the relative binding affinities of the conjugates. HT-29 cells (˜1×10^6) suspended in 100 μL of McCoy's 5A medium (pH 7.4, 4.8 mg/mL HEPES, and 2 mg/mL BSA) were incubated with 177Lu-N1 (100,000 cpm, 100 μL) at 37° C. for 45 minutes in the presence of the conjugates with predetermined concentrations (0.5 nM-1 μM) in 100 μL of medium. At the end of the incubation, the cells were centrifuged, aspirated, and washed with fresh medium (5×500 μL). The cell-associated radioactivity was measured using gamma counter and the IC50 values determined by nonlinear regression using GraphPad Prism 5. All measurements were in biological triplicate.

Data set [2] can be described thus: Distribution coefficient (Log D7.4) of the conjugates. In kind it is physicochemical. Here is the method:
Distribution Coefficient (Log D7.4) of the Conjugates The distribution coefficient was determined for each ^177Lu-labeled conjugate. In a 1.5 mL centrifuge tube, 0.5 mL of 1-octanol was added to 0.5 mL of PBS (pH 7.4) containing the radiolabeled peptide (500,000 cpm). The solution was vigorously vortexed for 2 minutes at room temperature and subsequently centrifuged to yield two immiscible layers. The radioactivity of the aliquots (100 μL) taken from each layer were quantified by the gamma counter and the Log D7.4 for each conjugates was calculated.

The next data set addresses CatB (Homo sapiens, UniProt P07858). The data set can be described thus: CatB inhibition of GRPR-targeted agents. In kind it is biochemical. The protocol:
The Inhibition of Cathepsin B Activity by the Conjugates The phosphate buffer (0.1 M, pH=5.8) containing EDTA (1 mM), DTT (2.7 mM), and Brij®35 (0.03%) was prepared before the assay. […] The solution of cathepsin B (human Liver) in assay buffer (50 μL, 0.544 nM) was added to the mixture which was further incubated at 37° C. for 20 minutes. The fluorescence of the liberated aminomethylcoumarin at 460 nM using 355 nm excitation was measured and the IC50 of the cathepsin B inhibition versus the samples without the inhibitor was determined by nonlinear regression using GraphPad Prism 5.

A further data set deals with PC-3 tumor. To be noted: mouse, in vivo.
Setting [3] is: determined by radiometric analysis, 177Lu-labeled conjugate.

Marks after values point to notes of the source that are not given here.

T2 sequence (P30989 whole entry): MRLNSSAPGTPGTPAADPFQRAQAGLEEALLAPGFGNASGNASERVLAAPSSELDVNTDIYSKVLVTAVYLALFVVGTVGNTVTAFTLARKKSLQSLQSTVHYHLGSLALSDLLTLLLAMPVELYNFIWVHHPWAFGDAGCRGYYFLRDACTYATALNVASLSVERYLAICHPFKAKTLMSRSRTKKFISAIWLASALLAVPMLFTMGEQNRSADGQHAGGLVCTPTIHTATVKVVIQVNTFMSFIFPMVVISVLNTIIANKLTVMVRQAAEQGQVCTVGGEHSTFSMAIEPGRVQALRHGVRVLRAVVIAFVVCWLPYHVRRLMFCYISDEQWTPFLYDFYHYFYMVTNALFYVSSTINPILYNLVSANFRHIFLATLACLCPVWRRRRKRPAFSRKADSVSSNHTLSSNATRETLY

In the case of `Cc1cc(C)c(C(=O)OCC(=O)[C@H](CCCCNC(=O)CNC(=O)[C@@H](CO)NC(=O)[C@@H](CO)NC(=O)[C@@H](CO)NC(=O)Cn2cc(C[C@H](NC(=O)CN3CCN(CC(=O)O)CCN(CC(=O)O)CCN(CC(=O)O)CC3)C(=O)N[C@H](CO)C(=O)N[C@H](CO)C(=O)N[C@H](CO)C(=O)N[C@@H](CCCCN)C(=O)N3CCC[C@H]3C(=O)N(C)[C@@H](CCCNC(=N)N)C(=O)N[C@@H](CCCNC(=N)N)C(=O)N3CCC[C@H]3C(=O)N[C@@H](Cc3c(C)cc(O)cc3C)C(=O)N[C@H](C(=O)N[C@@H](CC(C)C)C(=O)O)C(C)(C)C)nn2)NC(=O)[C@H](Cc2ccccc2)NC(=O)OCc2ccccc2)c(C)c1` (177Lu complex, metal not drawn) [Compound 2f], the “retention in liver and kidney compared to 3b (in words)” value in the data set on HT-29 xenograft tumors (HT-29 xenograft mice) is reported as “significantly increased retention”. The “increase in retention in the tumors compared to control 3b” value in the data set on HT-29 xenograft tumors (HT-29 xenograft, after 24 hours) is reported as “nearly two-fold increase”. Further, in the data set with HT-29 xenograft tumors (HT-29 xenograft, by 24 hours), the “increase in tumor uptake” value is listed as 25%.
Take `Cc1cc(C)c(C(=O)OCC(=O)[C@H](CCCCn2cc(C[C@H](NC(=O)CN3CCN(CC(=O)O)CCN(CC(=O)O)CCN(CC(=O)O)CC3)C(=O)NCCC(=O)N[C@@H](CCCCN)C(=O)N3CCC[C@H]3C(=O)N(C)[C@@H](CCCNC(=N)N)C(=O)N[C@@H](CCCNC(=N)N)C(=O)N3CCC[C@H]3C(=O)N[C@@H](Cc3c(C)cc(O)cc3C)C(=O)N[C@H](C(=O)N[C@@H](CC(C)C)C(=O)O)C(C)(C)C)nn2)NC(=O)[C@H](Cc2ccccc2)NC(=O)OCc2ccccc2)c(C)c1` [Compound 2a]: the Ki in data set [1] stood at 0.025 ± 0.004 µM. In addition, the IC50 (as a rule, the midpoint of a concentration-inhibition curve) on NTSR1 worked out at 0.02 ± 0.002 µM. In addition, the logD7.4 in data set [2] (setting [3]) was −1.46 ± 0.02^b.
For `Cc1cc(C)c(C(=O)OCC(=O)[C@H](CCCCNC(=O)Cn2cc(C[C@H](NC(=O)CN3CCN(CC(=O)O)CCN(CC(=O)O)CCN(CC(=O)O)CC3)C(=O)NCCC(=O)N[C@@H](CCCCN)C(=O)N3CCC[C@H]3C(=O)N(C)[C@@H](CCCNC(=N)N)C(=O)N[C@@H](CCCNC(=N)N)C(=O)N3CCC[C@H]3C(=O)N[C@@H](Cc3c(C)cc(O)cc3C)C(=O)N[C@H](C(=O)N[C@@H](CC(C)C)C(=O)O)C(C)(C)C)nn2)NC(=O)[C@H](Cc2ccccc2)NC(=O)OCc2ccccc2)c(C)c1` [Compound 2b] the same measures were 0.026 ± 0.005 µM, 0.022 ± 0.002 µM and −1.49 ± 0.02^b.
For `Cc1cc(C)c(C(=O)OCC(=O)[C@H](CCCCNC(=O)CNC(=O)[C@@H](CO)NC(=O)[C@@H](CO)NC(=O)[C@@H](CO)NC(=O)Cn2cc(C[C@H](NC(=O)CN3CCN(CC(=O)O)CCN(CC(=O)O)CCN(CC(=O)O)CC3)C(=O)NCCC(=O)N[C@@H](CCCCN)C(=O)N3CCC[C@H]3C(=O)N(C)[C@@H](CCCNC(=N)N)C(=O)N[C@@H](CCCNC(=N)N)C(=O)N3CCC[C@H]3C(=O)N[C@@H](Cc3c(C)cc(O)cc3C)C(=O)N[C@H](C(=O)N[C@@H](CC(C)C)C(=O)O)C(C)(C)C)nn2)NC(=O)[C@H](Cc2ccccc2)NC(=O)OCc2ccccc2)c(C)c1` [Compound 2d] the same measures were 0.073 ± 0.008 µM, 0.02 ± 0.003 µM and −1.79 ± 0.06^b.
Consider `Cc1cc(C)c(C(=O)OCC(=O)[C@H](CCCCNC(=O)CNC(=O)[C@@H](CO)NC(=O)[C@@H](CO)NC(=O)[C@@H](CO)NC(=O)Cn2cc(C[C@H](NC(=O)CN3CCN(CC(=O)O)CCN(CC(=O)O)CCN(CC(=O)O)CC3)C(=O)N[C@H](CO)C(=O)N[C@H](CO)C(=O)N[C@H](CO)C(=O)N[C@@H](CCCCN)C(=O)N3CCC[C@H]3C(=O)N(C)[C@@H](CCCNC(=N)N)C(=O)N[C@@H](CCCNC(=N)N)C(=O)N3CCC[C@H]3C(=O)N[C@@H](Cc3c(C)cc(O)cc3C)C(=O)N[C@H](C(=O)N[C@@H](CC(C)C)C(=O)O)C(C)(C)C)nn2)NC(=O)[C@H](Cc2ccccc2)NC(=O)OCc2ccccc2)c(C)c1` [Compound 2f], for which, in data set [1], the Ki was determined as 0.05 ± 0.013 µM. The same molecule came in with an IC50 at NTSR1 of 0.018 ± 0.002 µM.
For `CC(C)C[C@H](NC(=O)CCC(=O)O)C(=O)N[C@@H](CCCNC(=N)N)C(=O)NCCn1cc(C[C@H](NC(=O)CN2CCN(CC(=O)O)CCN(CC(=O)O)CCN(CC(=O)O)CC2)C(=O)NCCOCCOCCOCCOCCC(=O)N[C@H](Cc2ccccc2)C(=O)N[C@@H](CCC(N)=O)C(=O)N[C@@H](Cc2c[nH]c3ccccc23)C(=O)N[C@@H](C)C(=O)N[C@H](C(=O)NCC(=O)N[C@@H](Cc2c[nH]cn2)C(=O)N[C@@H](CC(C)C)[C@@H](O)CC(=O)N[C@H](CC(C)C)C(N)=O)C(C)C)nn1` [^177Lu-C-ANT, metal not drawn], the “inhibition of catB (in words)” value on CatB is recorded as “no inhibition”. The tumor retention in the data set on PC-3 tumor is recorded as 15%. The logD7.4 in data set [2] (GRPR-targeted agents) is on record as −1.9 ± 0.1.
